The conditions of data set [1]: for logP: HPLC, C 18 reversed phase, 40° C., 0.1% aqueous formic acid and acetonitrile, gradient 10% to 95% acetonitrile.
Protocol: temperature: 40° C.; mobile phases: 0.1% aqueous formic acid and acetonitrile; linear gradient from 10% acetonitrile to 95% acetonitrile;
Calibration was carried out using unbranched alkan-2-ones (comprising 3 to 16 carbon atoms) with known logP values (determination of the logP values by the retention times using linear interpolation between two successive alkanones). lambda-max-values were determined using UV-spectra from 200 nm to 400 nm and the peak values of the chromatographic signals.
For data set [2], the system named is Alternaria alternate. In words: In vitro cell test on Alternaria alternate. Format: cell-based. The conditions noted are these: 120 h, 20 ppm of active ingredient, 5 days incubation, spectrometric measurement of mycelium growth, read-out: efficacy (inhibition of fungal growth). The protocol:
Example B: In Vitro Cell Test on Alternaria alternate Solvent: dimethyl sulfoxide Culture medium: 14.6 g anhydrous D-glucose (VWR), 7.1 g mycological peptone (Oxoid), 1.4 g granulated yeast extract (Merck), […] Inoculum: spore suspension The tested compounds were solubilized in dimethyl sulfoxide and the solution used to prepare the required range of concentrations. […] A spore suspension of Alternaria alternate was prepared and diluted to the desired spore density. Compounds were evaluated for their ability to inhibit spore germination and mycelium growth in liquid culture assay. The compounds were added in the desired concentration to the culture medium with spores. After 5 days incubation, fungi-toxicity of compounds was determined by spectrometric measurement of mycelium growth. Inhibition of fungal growth was determined by comparing the absorbance values in wells containing the compounds with the absorbance in control wells without fungicides.

Data set [3] deals with Colletotrichum lindemuthianum. Description: In vitro cell test on Colletotrichum lindemuthianum. Format: cell-based. The note with it: 144 h, 20 ppm of active ingredient, 6 days incubation, spectrometric measurement of mycelium growth, read-out: efficacy (inhibition of fungal growth). The protocol:
Example C: In Vitro Cell Test on Colletotrichum lindemuthianum Solvent: dimethyl sulfoxide Culture medium: 14.6 g anhydrous D-glucose (VWR), 7.1 g mycological peptone (Oxoid), 1.4 g granulated yeast extract (Merck), QSP 1 liter Inoculum: spore suspension The tested compounds were solubilized in dimethyl sulfoxide and the solution used to prepare the required range of concentrations. […] A spore suspension of Colletotrichum lindemuthianum was prepared and diluted to the desired spore density. Compounds were evaluated for their ability to inhibit spores germination and mycelium growth in liquid culture assay. The compounds were added in the desired concentration to the culture medium with spores. After 6 days incubation, fungi-toxicity of compounds was determined by spectrometric measurement of mycelium growth. Inhibition of fungal growth was determined by comparing the absorbance values in wells containing the compounds with the absorbance in control wells without fungicides.

Data set [4] relates to Pyricularia oryzae. In words: microbe, parasite or virus in culture. It is filed as cell-based. The note with it: 120 h, read-out: efficacy (inhibition of fungal growth).

The results in this text go back to patent US20200079801A1, “TRISUBSTITUTEDSILYLBENZYLBENZIMIDAZOLES AND ANALOGUES” (Bayer Aktiengesellschaft, priority 2017, published 2020).

The structures appear in SMILES notation.

In general, logP refers to the decadic logarithm of the partition coefficient of the neutral form, usually between octanol and water. Read a high logP as higher lipophilicity. A word on the inhibition: it is the change of the read-out against control, counted positive when it falls. What is called chromatographic logP is a lipophilicity value derived from retention on a column. Read a low chromatographic logP as lower lipophilicity.

For the molecule `Cc1cc2ncn(Cc3ccccc3[Si](C)(C)c3ccc(-c4ccccc4)cc3)c2cc1C` [I.48], the logP in data set [1] is 3.33.
Take `C[Si](C)(c1ccccc1)c1ccccc1Cn1cnc2ccccc21` [I.01, 1-{2-[dimethyl(phenyl)silyl]benzyl}-1H-benzimidazole]: the inhibition at 20 ppm in data set [2] was in the range of 80 to 89%; in data set [3] it was 90 to 100%; in data set [4], 90 to 100%. For the same molecule, the chromatographic logP in data set [1] was found to be 2.57.
`C[Si](C)(c1ccc(-c2ccccc2)cc1)c1ccccc1Cn1cnc2ccccc21` [I.40] showed a lipophilicity (logP) in data set [1] of 3.39.
Still for that read-out and setting: for `Cc1nc2ccccc2n1Cc1ccccc1[Si](C)(C)c1ccc(-c2ccccc2)cc1` [I.46] the value was 3.18.
`Cc1cc2nc(C)n(Cc3ccccc3[Si](C)(C)c3ccc(-c4ccccc4)cc3)c2cc1C` [I.53] showed a logP in data set [1] of 3.29.
